Laboratory results taken from patent US5677285A, “Derivatives of neuraminic acid” (Fidia S.P.A., priority 1992, dated 1997).
“Also recorded” adds a separate entry of the source. Where two headings read alike, the source gives them in different places.

How the values were obtained:
[1] = tested on: glutamate-activated cationic channels (cerebellar granule neurons); experiment: Single channel current registration of glutamate-activated cationic channels; format: cell-based, rats
Experimental: (§1) Primary cell cultures of cerebellar granule cells were prepared from 8 day old rats (Zivic Miller, Pittsburgh, Pa, USA).
(§2) Neurons were grown on 35 mm plates for 7-8 days and maintained in a humid environment (95% air and 5% CO2). Cultures (2.5×10^6 cells/plate) were mainly formed by granule cells (95%), with a small amount (5%) of glial cells (Gallo V. et al.: Selective release of glutamate from cerebellar granule cells differentiating in culture. Proc. Natl. Acad. Sci. USA 79, 7919-23, 1982). Glial proliferation was prevented by arabinofuranoside cytosine.
(§3) Derivative ND37 was solubilized at a concentration of 1×10^-2 M in dimethylsulfoxide (1% DMSO), and then diluted at various concentrations in Locke's solution (-Mg^++) (154 mM NaCl/5.6 mM KCl/3.6 mM NaHCO3 /2.3 mM CaCl2 /5.6 mM glucose/5 mM HEPES, pH 7.4). ND37 was analyzed at concentrations of 20 and 30 μM.
Experiments were performed at room temperature utilizing the following medium 145 mM NaCl, 1 mM CaCl2, 5 mM glucose, and 5 mM HEPES/NaOH at pH 7.4, and patch pipettes, close to the preparation, containing 145 mM CsCl2, 1 mM CaCl2, 11 mM ethyleneglycol (β-aminoethyl ether) bis N,N'-tetraacetic acid, 10 mM HEPES/Cs(OH)2 at pH 7.2. Plates were continually perfused at a flow rate of 1 ml/min.
b) The activation by glutamate of single channels was externally recorded on membrane portions prepared from cerebellar granule cells pretreated with ND37 for 30 minutes at 37° C. Micropipettes, filled (1 μM) with glutamate, were positioned close to the membrane portions and were also utilized in order to drip the neurotransmitter. Single channel currents were registered according to the method described by Bertolini and Vicini ("Voltage-dependent block by strychnine of N-methyl-D-aspartic acid-activated cationic channels in rat cortical neurons in culture", Mol. Pharmacol. 34, 98-103, 1988).

[2] = tested on: cerebellar granule cells and cortical neurons; experiment: Whole cell registration of glutamate-activated inward currents; format: cell-based, rats; settings: glutamate 50 μM given contemporaneously with ND37 30 μM; absence of Mg++
Experimental: as §1, §2
Primary cell cultures of cortical neurons were prepared from one day old neonatal […] (Zivic Miller, Pittsburgh, Pa., USA) (Bertolino and Vicini: Mol. Pharmacol. 34, 98-103, 1988).
Cultures were grown on 35 mm plates, to which was added 10 μg/ml of poly-L-lysine, at a density of 5×10^5 cortical neurons/plate. Cultures were prepared on basal Eagle medium (Gibco) containing 10% fetal calf serum (Gibco), 25 mM KCl, 2 mM glutamine, and 100 μg/ml gentamycine. […]
as §3, with “μM. […]” for “μM.”

cerebellar granule cells [3] = experiment: Extracellular glutamate and aspartate content in potassium induced depolarization (HPLC); format: cell-based, Sprague-Dawley rats
Experimental: Primary cell cultures of cerebellar granule cells were prepared from 8 day old Sprague-Dawley rats.
as §2, with “grown in” for “grown on”, “for 11-13” for “for 7-8”, “Cultures (3×10^6” for “Cultures (2.5×10^6”, “cells/plate) are” for “cells/plate) were”, “cells (95%,” for “cells (95%),”
Derivative ND37 was solubilized at a concentration of […] in dimethylsulfoxide (1% DMSO), and then diluted at various concentrations (0.1-1-10-20 μM) in Locke's solution (154 mM NaCl/5.6 mM KCl/3.6 mM NaHCO3 /2.3 mM CaCl2 /1 mM MgCl2 /5.6mM glucose/5 mM HEPES, pH 7.4). […]
The cell culture medium was aspirated from the plates. Plates were washed (3×2 ml) with Locke's solution, and solutions (750 μl) containing the compound to be tested (concentrations from 0.1 to 20 μM) were added and incubated for 2 hours in an incubator at 37° C. (5% CO2) both in the presence and absence of different depolarizing concentrations of KCl (between 5 and 50 mM). The incubation medium was gathered, filtered through a 0.2 μ filter, and processed (220 μl) for the analysis of the amino acid content.
The glutamate and aspartate content (expressed as μM) was evaluated by HPLC (high pressure liquid chromatography), according to Bidlingmeryer B. A. et al., J. Chromatogr. 336, 93-104, 1984.

cerebellar granule cells [4] = experiment: Protective effect on exogenous glutamate-induced neurotoxicity during cotreatment, FDA/PI test; format: cell-based, rats; settings: Rattus norvegicus, 24 h, glutamate 50 μM cotreatment, read-out: % surviving cells N = 4 (average + s.e.) FDA/PI test
Experimental: Primary cerebellar granule cells were prepared from 8 day old rats (Zivic Miller, Pittsburgh, Pa, USA). […] Glial proliferation was prevented by arabinofuranoside cytosine.
The following concentrations were tested: 5×10^-6 M, 1×10^-5 M, and 2×10^5 M.
The cell culture medium was aspirated from the plates (and correctly maintained). Plates were washed (3×2 ml) with Locke's solution without Mg^++, and solutions (1.5 ml) containing the compound to be tested (concentrations from 5×10^6 M to 2×10^5 M) were added and incubated for 2 hours in an incubator at 37° C. (5% CO2).
Treated cells were washed (3×2 ml) with Locke's solution+10% fetal calf serum, then washed (3×2 ml) with Locke's solution without Mg^++. 1.5 ml of Locke's solution (-Mg^++) or 50 μM of glutamate±the test compound (concentrations between 1 and 4×10^-5 M) in 1.5 ml of Locke's solution (-M^++) were added. The incubation was conducted for 15 minutes (37° C.). Glutamate and the compound were removed. The plates were washed with Locke's solution (2×2 ml), and then incubated in the presence of the starting medium (correctly maintained) for 24 hours at 37° C. in an incubator (5% CO2). […] The stained cells where immediately analyzed using a standard fluorescence microscope for epiillumination (Vanox Olympus, 450 nm excitation, 520 nm emission). FDA, a non polar ester, crosses cell membranes and is hydrolyzed by intracellular esterases with the consequent production of a yellow greenish color.
After glutamate treatment, some neurons can degenerate and detach from the plates. The loss of cells was estimated by comparing the number of intact or degenerated neurons in a well defined field, which was photographed before and after 24 hours after application of glutamate. The percent of surviving neurons in 4 representative fields (magnification 40×) of each monolayer was determined by a researcher unaware of the experimental conditions, evaluating the FDA/PI color, and calculating it as follows: [formula]
Data are expressed as % of surviving cells. Significance was calculated using the Dunnett's test.

[5] = Glutamate (1 mM) + ND37 (20 uM), 30 minutes pretreatment, n = 10
[6] = controls + ND 37 (20 uM), no KCl
[7] = group 3: KCl (50 mM) + ND37 (20 uM) as printed, corresponding group KCl (30 mM)
[8] = group 4: KCl (50 mM) + ND37 (20 uM), Table 5
[9] = group 5: KCl (50 mM) + ND37 (20 uM) as printed, corresponding group KCl (25 mM)
[10] = group 6: KCl (50 mM) + ND37 (20 uM) as printed, corresponding group KCl (15 mM)

CCCCCCCCCCCCCCCC(=O)NC1C(O)CC(OCC)(C(=O)N(C)C)OC1C(O)C(O)CO (stereo not drawn) [ND37, β-2-O-ethylglycoside of the dimethylamide of N-palmitoylneuraminic acid]
Channel conductivity [1, 5]: 50 ps
Opening frequence [1, 5]: 4.1 ± 2.1 opening/sec
effect on channel conductivity and frequency of opening ([1]; pretreatment 30 minutes with 20 μM ND37): does not influence
inside currents activated by glutamate (whole cell response) [2]: does not influence the control response; also recorded: not different
glutamate increase induced by KCl in the culture medium (cerebellar granule cells [3]; 20 μM): completely abolished
extracellular increase of glutamate and aspartate induced by KCl (cerebellar granule cells [3]; 20 μM, KCl 15, 25, 30, and 50 mM): completely abolished
Extracellular glutamate content (cerebellar granule cells [3]; KCl (50 mM) + ND37 (0.1 uM)): 12.60 ± 0.57 µM
Extracellular glutamate content (cerebellar granule cells [3]; KCl (50 mM) + ND37 (1 uM)): 13.30 ± 1.33 µM
Extracellular glutamate content (cerebellar granule cells [3]; KCl (50 mM) + ND37 (10 uM)): 5.60 ± 2.37 µM
Extracellular glutamate content (cerebellar granule cells [3]; KCl (50 mM) + ND37 (20 uM), Table 4): 0.11 ± 0.09 µM
activity at 0.1 µM (cerebellar granule cells [3]; Rattus norvegicus, 2 h, KCl (50 mM) + ND37 (0.1 uM)): 72%
activity at 1 µM (cerebellar granule cells [3]; Rattus norvegicus, 2 h, KCl (50 mM) + ND37 (1 uM)): 76%
activity at 10 µM (cerebellar granule cells [3]; Rattus norvegicus, 2 h, KCl (50 mM) + ND37 (10 uM)): 32%
activity at 20 µM (cerebellar granule cells [3]; Rattus norvegicus, 2 h, KCl (50 mM) + ND37 (20 uM), Table 4, read-out: % KCl 50 Mm (extracellular glutamate)): 0.01%
activity at 20 µM (cerebellar granule cells [3]; Rattus norvegicus, 2 h, group 3: KCl (50 mM) + ND37 (20 uM) as printed, corresponding group KCl (30 mM), read-out: % corresp. KCl (aspartate)): 0.06%
activity at 20 µM (cerebellar granule cells [3]; Rattus norvegicus, 2 h, group 3: KCl (50 mM) + ND37 (20 uM) as printed, corresponding group KCl (30 mM), read-out: % corresp. KCl (glutamate)): 0.01%
activity at 20 µM (cerebellar granule cells [3]; Rattus norvegicus, 2 h, group 4: KCl (50 mM) + ND37 (20 uM), Table 5, read-out: % corresp. KCl (aspartate)): 0.13%
activity at 20 µM (cerebellar granule cells [3]; Rattus norvegicus, 2 h, group 4: KCl (50 mM) + ND37 (20 uM), Table 5, read-out: % corresp. KCl (glutamate)): 0.02%
activity at 20 µM (cerebellar granule cells [3]; Rattus norvegicus, 2 h, group 5: KCl (50 mM) + ND37 (20 uM) as printed, corresponding group KCl (25 mM), read-out: % corresp. KCl (aspartate)): 0.28%
activity at 20 µM (cerebellar granule cells [3]; Rattus norvegicus, 2 h, group 5: KCl (50 mM) + ND37 (20 uM) as printed, corresponding group KCl (25 mM), read-out: % corresp. KCl (glutamate)): 0.06%
activity at 20 µM (cerebellar granule cells [3]; Rattus norvegicus, 2 h, group 6: KCl (50 mM) + ND37 (20 uM) as printed, corresponding group KCl (15 mM), read-out: % corresp. KCl (aspartate)): 0.09%
activity at 20 µM (cerebellar granule cells [3]; Rattus norvegicus, 2 h, group 6: KCl (50 mM) + ND37 (20 uM) as printed, corresponding group KCl (15 mM), read-out: % corresp. KCl (glutamate)): 0.34%
inhibition at 0.1 µM (cerebellar granule cells [3]; Rattus norvegicus, 2 h, 0.1 μM, read-out: reduction of extracellular glutamate induced by KCl): ~30%
Extracell. aspartate content (cerebellar granule cells [3]; [6]): 0.039 µM
Extracell. glutamate content (cerebellar granule cells [3]; [6]): 0.362 µM
basal levels (controls) of extracellular glutamate and aspartate (cerebellar granule cells [3]; doses up to 20 μM): did not modify
Extracell. aspartate content (cerebellar granule cells [3]; [7]): 0.063 µM
Extracell. glutamate content (cerebellar granule cells [3]; [7]): 0.318 µM
Extracell. aspartate content (cerebellar granule cells [3]; [8]): 0.078 µM
Extracell. glutamate content (cerebellar granule cells [3]; [8]): 0.246 µM
Extracell. aspartate content (cerebellar granule cells [3]; [9]): 0.107 µM
Extracell. glutamate content (cerebellar granule cells [3]; [9]): 0.330 µM
Extracell. aspartate content (cerebellar granule cells [3]; [10]): 0.046 µM
Extracell. glutamate content (cerebellar granule cells [3]; [10]): 0.899 µM
viability at 10 µM (cerebellar granule cells [4]; ND37 1 × 10^-5 M): 34 ± 2%
viability at 20 µM (cerebellar granule cells [4]; ND37 2 × 10^-5 M): 70 ± 6%
viability at 40 µM (cerebellar granule cells [4]; ND37 4 × 10^-5 M): 88 ± 4.5%
